Measured values: patent US12251385B2, “Covalent inhibitors of menin-MLL interaction for diabetes mellitus” (BIOMEA FUSION, INC., priority 2021, dated 2025)
Entries after “also recorded” stand apart in the source; their conditions may differ.

How the values were obtained:
[1] = tested on: Zucker diabetic fatty rats (ZDF rats, genotype ZDF-Lepr^fa/Crl); assay: Restoration of glycemic control in diabetic fatty rats, dosing Days 1-16 (Example 102); type: in vivo, rat
Procedure: The present examples provides the ability of Compound 10 to restore glycemic control to diabetic Zucker diabetic fatty rats (ZDF rats, genotype ZDF-Lepr^fa/Crl; Charles River). Cornicelli et al., 2005, Charles River.
(§1) Control and test compounds were stored at 4° C. and prepared weekly as needed. The vehicle for positive control pioglitazone was 0.25% carboxymethylcellulose and 1% Tween® 80 in reverse osmosis deionized water. The vehicle for Compound 10 was 10% DMSO, 10% Solutol HS 15, and 80% (10% hydroxypropyl-β-cyclodextrin in 50 mM citrate buffer at pH 3.0).
(§2) On Day −3, twenty-four ZDF rats (plus eight spare ZDF rats) were measured for body weight and non-fasting glucose. LabDiet 5008 was provided ad libitum throughout the study, except during designated procedures, as was water. In order to minimize the effects of stress on blood glucose and body, all animals including the spares received daily sham doses with phosphate buffered saline pH 7.2 (dose volume 5 mL/kg) via gavage beginning on Study Day −5 to Day −1.
Vehicle, control, and test compound were administered via oral gavage according to the following design on Days 1-16.
On Days −3, 1, 8, and 14 non-fasting blood glucose was measured. […] The animals were weighed, and the animals were placed in clean cages without food. Access to water was provided throughout the procedure. The animals were fasted for five hours and a blood glucose measurement was determined. The animals were dosed via oral gavage with 2 g/kg glucose (10 mL/kg). Blood glucose was determined via tail snip. The second drop of blood from the animal was placed on a hand-held glucometer (Abbott Alpha Trak) at the following times relative to the glucose dose: zero (just prior to glucose dose), 15, 30, 60, 90, and 120 min. Following the final blood glucose measurement, food was returned to the cages. On Day 17, 4-hour fasting glucose was measured. Serum samples were used to measure insulin by ELISA. Analysis was performed in one to three days of each collections. […]

[2] = tested on: streptozotocin (STZ) induced type II diabetes in Wistar Han rats; assay: Restoration of glycemic control in streptozotocin-induced rats (Example 103); type: in vivo, rat
Procedure: The present example provides the ability of Compound 10 to restore glycemic control to streptozotocin (STZ) induced type II diabetes in Wistar Han rats. Fahmy et al., 2017, World J. Pharm. Med. Res. 3(3):37-39.
as §1, with “3.0). The vehicle for streptozotocin pretreatment was 0.1 M sodium citrate pH 4.5.” for “3.0).”
as §2, with “Wistar Han” for “ZDF”, “Starting on Day −42, D12451 Research Diet” for “LabDiet 5008”, “−1. 20% Glucose in drinking water (200 g/L) was provided ad libitum for 24 hr after streptozotocin injection on Day −14 and Day −7.” for “−1.”
On Days −14 and −7, streptozotocin was administered at 30 mg/kg/day QD intraperitoneally. Starting on Day 1, control and test compound were administered on the following schedule.
On Days −7 to −1 and on Days 1, 8, and 14 non-fasting blood glucose was measured. On Day 15, an oral glucose tolerance test was administered. The animals were weighed and the animals were placed in clean cages without food. Access to water was provided throughout the procedure. The animals were fasted for five hours and a blood glucose measurement was determined. The animals were dosed via oral gavage with 2 g/kg glucose (10 mL/kg). Blood glucose was determined via venipuncture. The second drop of blood from the animal was placed on a hand-held glucometer (Abbott Alpha Trak) at the following times relative to the glucose dose: zero (just prior to glucose dose), 15, 30, 60, 90, and 120 min. Following the final blood glucose measurement, food was returned to the cages. On Day 17, 4-hour fasting glucose was measured. Serum samples were used to measure insulin by ELISA. Analysis was performed in one to three days of each collection. On Day 17, terminal blood collection was obtained at about 8 mL per animal and measured for blood glucose.

[3] = tested on: Type 2 Diabetes Mellitus (T2DM) Zucker Diabetic Fatty Rat model; assay: Glycemic control in ZDF rats, 28 days treatment plus 28 days post-treatment (Example 104); type: in vivo
Procedure: Rats were treated daily with Compound 10, liraglutide, or vehicle for twenty-eight days and monitored for an additional twenty-eight days post-treatment.

[4] = tested on: Zucker Diabetic Fatty (ZDF) Rat; assay: ZDF rat model, 16 days dosing and drug washout to Day 29 (Example 105); type: in vivo; conditions: ZDF rats
Procedure: (§3) ZDF rats were treated daily with Compound 10, vehicle, or pioglitazone for sixteen days and monitored for an additional two weeks post-treatment until Day 29. STZ rat models were induced through pre-treatment of animals on a high-fat diet with low doses of streptozotocin at Day −14 and Day −7 prior to starting treatment at Day Zero until Day 16. ZDF and STZ rats were monitored for fasting blood glucose levels, oral glucose tolerance test (OGTT), insulin and C-peptide levels, HOMA-IR (Homeostatic Model Assessment of Insulin Resistance), blood lipemic levels, and body weight according to the schematic for each model below. ZDF rats were analyzed for indicated readouts for fifteen days post-treatment for OGTT at Day 29, and serum insulin and C-peptide at Day 31.
ZDF Rat Model—three treatment groups 1. Vehicle; 2. Compound 10 at 175 mg/kg; and 3. Pioglitazone at 30 mg/kg; n=10 per group. Daily dosing zero to sixteen days QD 4 drug wash out at sixteen to twenty-nine days. Rats were monitored for the following parameters through dosing and wash out phases—body weight, fasting blood sugar, blood insulin, C-peptide, and OGTT.

[5] = tested on: Streptozotocin-induced Rat (STZ); assay: STZ rat model, 16 days dosing (Example 105); type: in vivo; conditions: STZ rats
Procedure: as §3
STZ Rat Model—three treatment groups 1. Vehicle; 2. Compound 10 at 175 mg/kg; and 3. Pioglitazone at 30 mg/kg; n=10 per group. Fourteen-day STZ pretreatment prior to dosing. Daily dosing zero to sixteen days QD. Rats were monitored for the following parameters through dosing—body weight, blood glucose levels, and OGTT.

[6] = tested on: Zucker Diabetic Fatty (ZDF) rats; assay: Reduction in HbA1c in ZDF rats, 28 days dosing and washout (Example 106); type: in vivo, rat
Procedure: Zucker Diabetic Fatty (ZDF) rats were dosed daily with Compound 10, liraglutide, or vehicle for twenty-eight days (n=10 per group) and monitored for an additional twenty-eight days post last dose. Fasting blood glucose, insulin, C-peptide levels, HbA1c, oral glucose tolerance test (OGTT), and body weight were monitored during and post-treatment.
ZDF Rat Model—five treatment groups 1. Vehicle; 2. Compound 10 at 40 mg/kg; 3. Compound 10 at 85 mg/kg; 4. Compound 10 at 170 mg/kg; and 5. Liraglutide at 0.2 mg/kg; n=10 per group. Group 2 dose (40 mg/kg) was increased to 200 mg/kg on Day 17 for rest of the dosing phase. Daily dosing zero to twenty-eight days days QD 4 drug wash out twenty-eight to fifty-six days. Rats were monitored for the following parameters through dosing and wash out phases—body weight, fasting blood sugar, blood insulin, C-peptide, OGTT, and HbA1C.

[7] = 175 mg/kg QD, after two weeks of treatment
[8] = 175 mg/kg QD, after two weeks of treatment, p<0.05
[9] = twenty-eight days of treatment, FIG. 18
[10] = up to the last day of dosing, lasting two weeks post last dose

C=CC(=O)N[C@@H]1CCCN(Cc2ccnc(C(=O)Nc3ccc(-c4cc5c(N6CCOCC6)ncnc5[nH]4)cc3)c2)C1 [Compound 10]
insulin, non-fasting state ([1]; 175 mg/kg/day PO QD, Days 1, 8, 14, compared to vehicle and control, FIG. 2A): significant reduction | glucose, fasting state ([1]; 175 mg/kg/day PO QD, compared to vehicle and control, FIG. 1B): significant reduction | insulin, fasting state ([1]; 175 mg/kg/day PO QD, compared to vehicle and control, FIG. 2B): significant reduction | insulin resistance (HOMA), non-fasting state ([1]; 175 mg/kg/day PO QD, compared to vehicle and control, FIG. 3A): significant reduction | insulin resistance (HOMA), fasting state ([1]; 175 mg/kg/day PO QD, compared to vehicle and control, FIG. 3B): significant reduction | glucose, non-fasting state ([1]; Compound 10 175 mg/kg/day PO QD, compared to vehicle and control (pioglitazone), FIG. 1A): significant reduction | oral glucose tolerance test (blood glucose, AUC), Day 29 ([1]; Day 29, after fourteen days of no treatment, FIGS. 5A-5B): significant glucose control | C-peptide two weeks after therapy ([1]; FIG. 7): increasing C-peptide | oral glucose tolerance test (blood glucose, AUC) ([1]; after fifteen days of treatment, 2 g/kg glucose, FIGS. 4A-4B): significant glucose control | 4-hour fasting insulin after two weeks without therapy ([1]; no therapy for two weeks, statistically superior to control, FIG. 6A): increasing insulin | 4-hour fasting glucose after two weeks without therapy ([1]; no therapy for two weeks, statistically superior to control, FIG. 6B): glucose lowering | non-fasting glucose ([2]; STZ-induced Wistar Han rats, 175 mg/kg/day PO QD, compared to vehicle and control, FIG. 8): sharp reduction | insulin, 4-hour fasting state (FIG. 10B) ([2]; STZ-induced rats, Day 17): maintenance or reduction | insulin, non-fasting state (FIG. 10A) ([2]; STZ-induced rats, Days 1, 8 and 14): maintenance or reduction | insulin, non-fasting state (FIG. 9) ([2]; STZ-induced rats, Days 1 and 8): significant reduction | oral glucose tolerance test (blood glucose, AUC) ([2]; STZ-induced rats, after fifteen days of treatment, significant relative to vehicle and control, FIGS. 11A-11B): significant glucose control | absolute reduction in HbA1C versus vehicle ([3]; 28 days daily treatment, Day 29, FIG. 12): 3.5% | HbA1C throughout the entire study, including post-treatment ([3]; FIG. 12): remained reduced | oral glucose tolerance test (OGTT) on Day 25 ([3]; both Compound 10 dose groups, in contrast to vehicle and liraglutide): improved glycemic control | tolerability ([3]; daily treatment for twenty-eight days, throughout the study): tolerated Compound 10 well | 4-hour fasting blood glucose ([3]; high-dose arm, during treatment up to Day 29): strong reduction | body weight ([4]; 175 mg/kg QD for sixteen days, 175 mg/kg): reduces body weight; also recorded: Significant reductions | blood lipemic levels (cholesterol, triglycerides) ([4]; 175 mg/kg QD for sixteen days, Day 17, p<0.01, 175 mg/kg): significantly reduces; also recorded: Significant reductions | reduction in fasting blood glucose levels [4, 7]: ~50% | reduction in non-fasting blood glucose levels [4, 7]: ~50% | HOMA-IR ([4]; 175 mg/kg QD, after two weeks of treatment, p<0.001): reduced | C-peptide levels [4, 8]: significantly reduced | serum insulin levels [4, 8]: significantly reduced | OGTT AUC reduction, Day 15 ([4]; 175 mg/kg QD, p<0.001): 54% | OGTT AUC reduction, Day 29 ([4]; drug washout, ~two weeks after the last dose, p<0.05): 40% | insulin sensitivity (HOMA-IR) ([4]; sixteen days of treatment, FIG. 16): increases insulin sensitivity | blood glucose, insulin, and C-peptide levels during drug washout ([4]; two weeks after the last dose, FIG. 14): maintains significant impact | body weight [5]: Significant reductions | blood glucose levels (non-fasting) during treatment ([5]; 175 mg/kg QD, measured weekly during treatment, FIG. 15B, 175 mg/kg): strongly reduces; also recorded: reduction of glucose levels | OGTT AUC reduction, Day 15 ([5]; Compound 10 175 mg/kg, pioglitazone 30 mg/kg QD, p<0.05): 41% | blood lipemic levels ([5]; p<0.01): Significant reductions | HbA1c, all doses tested ([6]; 4-week dosing study): significantly reduces; also recorded: significant reductions | fasting blood glucose levels, mid- and high-dose arms ([6]; 85 and 170 mg/kg QD, similar to liraglutide): reduction | HbA1c two weeks after the last dose ([6]; Day 15 post-dosing, FIG. 21): maintains a significant reduction | HbA1c absolute amount lower than the liraglutide group ([6]; Day 29): 1.8% | HbA1c absolute amount lower than the vehicle group ([6]; Day 29): 3.5% | HbA1c reduced from vehicle (relative) ([6]; Day 29): 33% | HbA1c relative reduction printed with the liraglutide comparison ([6]; Day 29, reduced from vehicle): 20% | glycemic control over four weeks of dosing ([6]; FIG. 20): durable glycemic control | fasting blood glucose, Day 29 ([6]; high-dose group, one day after treatment stopped): sustained and significant reduction | oral glucose tolerance test (OGTT) on Day 25, high-dose group ([6]; high-dose-treated group versus liraglutide): improved response versus liraglutide | oral glucose tolerance test (OGTT) on Day 25, all dose groups ([6]; in comparison to the vehicle-treated group): improved glycemic control | body weight over time [6, 9]: progressive increase | fasting blood glucose levels over time [6, 9]: progressive increase | fasting c-peptide levels [6, 10]: elevated | fasting insulin levels [6, 10]: elevated
